From patent US20020013478A1, “Calanolide analogues and methods of their use” (Sarawak Medichem Pharmaceuticals,Inc., priority 1994, published 2002)
pEC50: −log10 of the molar value. Converted amounts (≈) assume the structure as drawn.

How the values were obtained:
HCMV = HCMV semi-automated CPE-inhibition assay in human foreskin fibroblast cells; assay type: cell-based, human cytomegalovirus
VZV = VZV plaque reduction assay in human foreskin fibroblast cells; assay type: cell-based, varicella zoster virus; settings: Table II
How it was run: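 VZV at 20-30 plaques/well adsorbed 1 h onto HFF monolayers, then 0.5% agarose overlay holding drug at final 100 down to 0.03 μg/mL (1:5 steps), duplicates. Incubation 10 days, extra MEM/agarose overlay on days 3 and 6; neutral red staining, plaques counted.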

[1] = test system: human foreskin fibroblast cells; test: Toxicity run with the VZV assay, human foreskin fibroblast cells; assay type: cell-based; settings: Table II
How it was run: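 Human foreskin fibroblasts exposed to drug at 37 °C in CO2, either 72 h followed by Coulter Counter counts (triplicate counts, three replicate wells), or seven days followed by dye staining for 1 h and optical density at 550 nm.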

EBV = EBV assay: superinfection of Raji or Daudi cells with P3HR-1, immunofluorescence for EA and VCA; assay type: cell-based, Epstein-Barr virus
How it was run: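 Raji cells (Burkitt's lymphoma, 60 EBV genomes/cell) or Daudi cells were superinfected with P3HR-1 EBV, and drugs were added after 45 min adsorption at 37 °C and washing. After 48 h, smears were stained with monoclonal antibodies to EA components and VCA plus fluorescein anti-mouse Ig. Fluorescence-positive cells were counted to give total EA- or VCA-positive cells per culture.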

HIV-1 = test: microbe, parasite or virus in culture; settings: Human immunodeficiency virus 1, CEM-SS

SMILES	HCMV EC50 (HCMV; Table II)	VZV EC50 (VZV)	VZV IC50 [1]	EBV EC50 (EBV; Table II)	pEC50 (HIV-1)	EC50 (HCMV; Human betaherpesvirus 5, Fibroblast, Table II)	potency against HCMV (HCMV; text summary of Table II)	EC50 (VZV; Human alphaherpesvirus 3, Fibroblast)	IC50 ([1]; Homo sapiens, Fibroblast)	EC50 (EBV; human gammaherpesvirus 4, Table II)	potency against EBV (EBV; text summary of Table II)
CCCc1cc(=O)oc2c3c(c4c(c12)OC(C)(C)C=C4)OC(C)C(C)C3=O (racemic) [(±)-7a]	0.15 µg/mL	13.7 µg/mL	33.3 µg/mL	>50 µg/mL							
CCCc1cc(=O)oc2c3c(c4c(c12)OC(C)(C)C=C4)O[C@H](C)[C@@H](C)C3=O [(+)-7, 10(R),11(R)-trans-Dihydro6,6,10,11-tetramethyl-4-propyl-2H,6H,12H-benzo [1,2-b:3,4-b′:5,6-b″]tripyran-2,12-dione]					6.17	0.11 µg/mL (≈ 0.299 µM)	very potent	55.9 µg/mL (≈ 152 µM)	> 100 µg/mL	0.94 µg/mL (≈ 2.55 µM)	very potent
